ChEMBL document CHEMBL1641404 (Bioorg Med Chem Lett, 2011)

Assays:
Format in all cases: ADME, organism-based
[1] = Half life in Sprague-Dawley rat 1 mg/kg, iv; set-up: dose 1 mg/kg, route intravenous; conditions: in vivo
[2] = Half life in CD-1 mouse 1 mg/kg, iv; set-up: dose 1 mg/kg, route intravenous; conditions: in vivo
[3] = AUC (0 to t) in Sprague-Dawley rat 1 mg/kg, iv; set-up: dose 1 mg/kg, route intravenous; conditions: plasma
[4] = AUC (0 to t) in CD-1 mouse 1 mg/kg, iv; set-up: dose 1 mg/kg, route intravenous; conditions: plasma
[5] = Volume of distribution in Sprague-Dawley rat 1 mg/kg, iv; set-up: dose 1 mg/kg, route intravenous; conditions: in vivo
[6] = Volume of distribution in CD-1 mouse 1 mg/kg, iv; set-up: dose 1 mg/kg, route intravenous; conditions: in vivo
[7] = Clearance in Sprague-Dawley rat 1 mg/kg, iv; set-up: dose 1 mg/kg, route intravenous; conditions: in vivo
[8] = Clearance in CD-1 mouse 1 mg/kg, iv; set-up: dose 1 mg/kg, route intravenous; conditions: in vivo
Rattus norvegicus = assay: Cmax in Sprague-Dawley rat 5 mg/kg, po; set-up: dose 5 mg/kg, route oral; conditions: in vivo
Mus musculus = assay: Cmax in CD-1 mouse 10 mg/kg, po; set-up: dose 10 mg/kg, route oral; conditions: in vivo
[9] = Tmax in Sprague-Dawley rat 5 mg/kg, po; set-up: dose 5 mg/kg, route oral; conditions: in vivo
[10] = Tmax in CD-1 mouse 10 mg/kg, po; set-up: dose 10 mg/kg, route oral; conditions: in vivo
[11] = Half life in CD-1 mouse 10 mg/kg, po; set-up: dose 10 mg/kg, route oral; conditions: in vivo
[12] = AUC (0 to t) in Sprague-Dawley rat 5 mg/kg, po; set-up: dose 5 mg/kg, route oral; conditions: plasma
[13] = AUC (0 to t) in CD-1 mouse 10 mg/kg, po; set-up: dose 10 mg/kg, route oral; conditions: plasma
[14] = Oral bioavailability in Sprague-Dawley rat 5 mg/kg; conditions: in vivo
[15] = Oral bioavailability in CD-1 mouse 10 mg/kg; conditions: in vivo
[16] = Plasma concentration in mouse bearing ALK-positive tumor xenografts at 30 mg/kg, po up to 12 hrs; set-up: dose 30 mg/kg, route oral

half-life [1]: 48 min
half-life [2]: 42 min
AUC(0-t) [3]: 1020 ng·h/mL
AUC(0-t) [4]: 830 ng·h/mL
Vd [5]: 1.1 L/kg
Vd [6]: 1.2 L/kg
clearance [7]: 16 mL/min/kg
clearance [8]: 20 mL/min/kg
Cmax (Rattus norvegicus): 306 ng/mL
Cmax (Mus musculus): 1190 ng/mL
Tmax [9]: 198 min
Tmax [10]: 30 min
half-life [11]: 186 min
AUC(0-t) [12]: 1400 ng·h/mL
AUC(0-t) [13]: 3900 ng·h/mL
bioavailability [14]: 30%
bioavailability [15]: 64%
concentration at 12 h [16]: 3000 nM
Structure (SMILES): COc1cc2c(cc1Nc1ncc(Cl)c(Nc3ccc(N4CCOCC4)cc3OC)n1)CCN(CC(=O)N(C)C)CC2
